# Tests used:
# Assay in all cases: relative viability (nuclei count vs DMSO), 5 days (fraction); higher = more cells survive
# [1] = compound: COc1ccc(-c2ccc3c(N4CCOC[C@@H]4C)nc(N4CCOC[C@@H]4C)nc3n2)cc1CO [AZD8055] + CC(C)C[C@H](NC(=O)[C@H](Cc1ccccc1)NC(=O)c1cnccn1)B(O)O [Bortezomib] (partner 0.002 µM)
# Method in brief: (§1)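 Nuclei were stained with Hoechst during a one-step fixation (final 0.05% Triton X-100, 1% formaldehyde, 1 ug/ml Hoechst) carried out 5 days after dosing, then counted on 4× images. The cells, lung cancer lines in 1536-well plates, had been dosed by pin tool the day after seeding with one drug alone or a fixed anchor-drug dose plus five library-drug doses (not always all listed) in √10 steps. Relative viability is the nuclei count in treated wells divided by that in vehicle wells, and each value is the median of duplicate plates.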
# [2] = compound: COc1ccc(-c2ccc3c(N4CCOC[C@@H]4C)nc(N4CCOC[C@@H]4C)nc3n2)cc1CO [AZD8055] + Cc1nc(Nc2ncc(C(=O)Nc3c(C)cccc3Cl)s2)cc(N2CCN(CCO)CC2)n1 [Dasatinib] (partner 0.075 µM)
# Method in brief: as §1
# [3] = compound: COc1ccc(-c2ccc3c(N4CCOC[C@@H]4C)nc(N4CCOC[C@@H]4C)nc3n2)cc1CO [AZD8055] + CC1(C)CCC(c2ccc(Cl)cc2)=C(CN2CCN(c3ccc(C(=O)NS(=O)(=O)c4ccc(N[C@H](CCN5CCOCC5)CSc5ccccc5)c(S(=O)(=O)C(F)(F)F)c4)cc3)CC2)C1 [Navitoclax] (partner 0.5 µM)
# Method in brief: as §1
# [4] = compound: COc1ccc(-c2ccc3c(N4CCOC[C@@H]4C)nc(N4CCOC[C@@H]4C)nc3n2)cc1CO [AZD8055] + CCNC(=O)c1noc(-c2cc(C(C)C)c(O)cc2O)c1-c1ccc(CN2CCOCC2)cc1 [Luminespib] (partner 0.01 µM)
# Method in brief: as §1
Cell Line,relative viability ([1]; first compound 0.01 µM),relative viability ([1]; first compound 0.03162 µM),relative viability ([1]; first compound 0.1 µM),relative viability ([1]; first compound 0.3162 µM),relative viability ([1]; first compound 1 µM),relative viability ([2]; first compound 0.01 µM),relative viability ([2]; first compound 0.03162 µM),relative viability ([2]; first compound 0.1 µM),relative viability ([2]; first compound 0.3162 µM),relative viability ([2]; first compound 1 µM),relative viability ([3]; first compound 0.01 µM),relative viability ([3]; first compound 0.03162 µM),relative viability ([3]; first compound 0.1 µM),relative viability ([3]; first compound 0.3162 µM),relative viability ([3]; first compound 1 µM),relative viability ([4]; first compound 0.01 µM),relative viability ([4]; first compound 0.03162 µM),relative viability ([4]; first compound 0.1 µM),relative viability ([4]; first compound 0.3162 µM),relative viability ([4]; first compound 1 µM)
201T,1.12,1.1,1.11,0.881,0.811,0.537,0.564,0.501,0.398,0.416,1.22,1.23,1.21,1.03,0.819,0.979,1.01,0.814,0.421,0.42
A-427,1.01,0.815,0.858,0.518,0.462,0.666,0.632,0.572,0.281,0.339,0.987,0.837,0.598,0.376,0.315,1.3,0.832,0.817,0.482,0.581
ABC-1,0.3,0.287,0.366,0.284,0.329,0.692,0.548,0.526,0.219,0.3,,,,,,0.434,0.521,0.289,0.331,0.284
BEN,0.663,0.472,0.428,0.365,0.262,0.273,0.246,0.205,0.237,0.171,0.0642,0.064,0.0538,0.0837,0.0613,0.242,0.179,0.305,0.216,0.192
CAL-12T,1.21,0.955,0.521,0.298,0.316,0.536,0.388,0.34,0.136,0.12,1.25,1.24,0.838,0.35,0.23,0.321,0.203,0.131,0.152,0.139
COR-L23,1.2,0.834,0.779,0.236,0.168,0.581,0.44,0.309,0.137,0.164,1.01,0.732,0.468,0.229,0.172,0.773,0.625,0.381,0.118,0.137
COR-L 105,0.997,0.879,0.565,0.309,0.373,0.359,0.281,0.23,0.2,0.226,0.914,0.961,0.596,0.358,0.39,0.733,0.912,0.349,0.3,0.268
Calu-6,1.04,0.917,0.824,0.489,0.457,,,,,,0.886,0.792,0.621,0.32,0.313,,,,,
ChaGo-K-1,1.03,1.12,1.09,0.87,0.647,0.614,0.537,0.433,0.375,0.352,1.09,1.08,1.3,0.655,0.44,0.611,0.604,0.533,0.423,0.297
EBC-1,0.485,0.502,0.301,0.236,0.224,,,,,,0.312,0.187,0.213,0.182,0.205,,,,,
EKVX,0.942,1,0.832,0.499,0.356,0.443,0.615,0.419,0.317,0.263,1.08,1.04,0.797,0.512,0.413,0.949,0.866,0.655,0.355,0.248
EMC-BAC-2,1.06,1.04,0.954,0.465,0.382,0.32,0.25,0.234,0.186,0.186,1.22,1.13,1.05,0.446,0.37,1.18,1.05,0.867,0.534,0.403
EPLC-272H,0.74,0.62,0.754,0.522,0.691,0.333,0.221,0.173,0.109,0.128,1.1,0.842,0.556,0.378,0.35,0.182,0.12,0.178,0.22,0.182
H3255,0.777,0.901,0.525,0.371,0.259,0.364,0.429,0.3,0.323,0.306,0.54,0.443,0.324,0.176,0.172,0.879,0.804,0.845,0.382,0.381
HARA,1.12,1.23,1.11,0.725,0.54,0.282,0.294,0.221,0.155,0.221,1.16,1.13,0.935,0.738,0.393,1.44,0.584,0.393,0.112,0.12
HCC-15,1.17,1.1,0.976,0.663,0.615,0.615,0.541,0.477,0.273,0.174,0.782,0.591,0.561,0.38,0.293,0.304,0.39,0.262,0.208,0.242
HCC-44,1.01,0.942,0.853,0.494,0.449,,,,,,0.985,0.891,0.617,0.41,0.448,1.03,0.974,0.804,0.439,0.429
HCC-78,0.561,0.466,0.423,0.274,0.288,0.328,0.306,0.222,0.233,0.247,0.817,0.574,0.339,0.238,0.198,,,,,
HCC-366,1.31,0.863,0.98,0.337,0.123,0.719,0.401,0.241,0.0939,0.0948,1.15,0.911,0.694,0.418,0.132,,,,,

Cell Line,relative viability ([1]; first compound 0.01 µM),relative viability ([1]; first compound 0.03162 µM),relative viability ([1]; first compound 0.1 µM),relative viability ([1]; first compound 0.3162 µM),relative viability ([1]; first compound 1 µM),relative viability ([2]; first compound 0.01 µM),relative viability ([2]; first compound 0.03162 µM),relative viability ([2]; first compound 0.1 µM),relative viability ([2]; first compound 0.3162 µM),relative viability ([2]; first compound 1 µM),relative viability ([3]; first compound 0.01 µM),relative viability ([3]; first compound 0.03162 µM),relative viability ([3]; first compound 0.1 µM),relative viability ([3]; first compound 0.3162 µM),relative viability ([3]; first compound 1 µM),relative viability ([4]; first compound 0.01 µM),relative viability ([4]; first compound 0.03162 µM),relative viability ([4]; first compound 0.1 µM),relative viability ([4]; first compound 0.3162 µM),relative viability ([4]; first compound 1 µM)
HCC-827,1.2,1.04,1.11,0.935,1.08,0.334,0.273,0.258,0.241,0.167,1.03,0.991,1.03,0.92,0.456,0.6,0.336,0.308,0.319,0.13
HOP-62,0.669,0.747,0.969,0.304,0.469,0.741,0.554,0.556,0.272,0.171,1.09,1.11,1.17,0.75,0.594,1.08,0.842,0.888,0.634,0.482
IA-LM,0.706,0.363,0.114,0.106,0.0977,,,,,,0.566,0.495,0.291,0.109,0.105,,,,,
LC-2-ad,1.08,1.01,1.08,0.777,0.537,0.559,0.683,0.451,0.221,0.321,0.349,0.309,0.163,0.185,0.154,1.25,0.969,1.03,0.537,0.548
LCLC-97TM1,0.524,0.417,0.345,0.103,0.162,0.873,0.748,0.761,0.393,0.445,0.45,0.225,0.214,0.13,0.144,0.706,0.531,0.365,0.216,0.241
LCLC-103H,1.15,0.934,0.93,0.745,0.673,0.412,0.315,0.379,0.2,0.211,,,,,,0.951,0.762,0.793,0.414,0.271
LK-2,,,,,,0.215,0.188,0.175,0.185,0.185,0.797,0.584,0.441,0.216,0.241,0.154,0.186,0.16,0.173,0.144
NCI-H358,,,,,,0.169,0.173,0.0957,0.0735,0.0998,,,,,,0.33,0.336,0.392,0.123,0.0919
NCI-H650,0.658,0.511,0.681,0.343,0.291,0.469,0.393,0.36,0.292,0.231,,,,,,0.998,0.768,0.691,0.436,0.295
NCI-H661,1.09,0.619,0.758,0.396,0.295,0.845,0.867,0.633,0.368,0.305,,,,,,0.971,0.906,0.886,0.424,0.367
NCI-H1299,1.08,1.05,1.11,0.931,0.576,,,,,,1.05,1.08,1.02,0.939,0.67,,,,,
NCI-H1395,,,,,,0.405,0.376,0.37,0.31,0.292,1.4,0.97,0.797,0.654,0.498,0.669,0.379,0.684,0.445,0.36
NCI-H1563,0.862,0.808,0.758,0.599,0.773,0.458,0.458,0.443,0.405,0.384,,,,,,0.594,0.536,0.541,0.496,0.49
NCI-H1703,0.278,0.231,0.18,0.181,0.194,,,,,,0.944,0.702,0.517,0.292,0.337,,,,,
NCI-H1793,,,,,,0.356,0.178,0.192,0.148,0.11,0.363,0.288,0.205,0.229,0.163,0.151,0.156,0.146,0.132,0.149
NCI-H1944,,,,,,0.187,0.174,0.185,0.166,0.152,1.05,0.929,0.851,0.457,0.316,0.866,0.573,0.483,0.277,0.222
NCI-H2170,,,,,,0.557,0.558,0.333,0.205,0.197,0.59,0.517,0.295,0.189,0.191,0.633,0.715,0.403,0.233,0.165
NCI-H2342,,,,,,0.316,0.288,0.268,0.293,0.304,,,,,,0.579,0.535,0.599,0.419,0.424
SK-MES-1,,,,,,0.404,0.337,0.256,0.213,0.179,1.05,1.25,0.818,0.404,0.342,0.371,0.503,0.185,0.182,0.213
